# Laboratory results published in PMC12736120, “First-in-Human Phase I Clinical Trial of SLC-391, a Novel and Selective AXL Inhibitor, in Patients with Advanced Solid Tumours” (Pharmaceuticals, 2025).
# Assay: Phase I safety and tolerability (DLTs, adverse events, laboratory, ECG)
# Format: in vivo
# Settings: Grade All
# Method: This study employed a standard 3 + 3 dose escalation design with a starting dose of 25 mg QD. […] Dose escalation decisions took into account all available data from evaluable subjects as well as PK and the safety profile of prior dose cohorts. […] There was a minimum 5-day stagger between dosing of the first and second subjects in each dose cohort. Dose escalation decisions were made by a data review committee (DRC) composed of, at minimum, the medical monitor, at least one principal investigator, and a sponsor representative, per the study DRC Plan. Dose escalation could continue until 2 or more subjects in the same dose cohort experienced a dose-limiting toxicity (DLT). DLTs were defined as Grade 3 or 4 adverse drug reactions (ADRs), with grades as defined in the National Cancer Institute Common Toxicity Criteria for Adverse Events (NCI-CTCAE) version 5.0. […] The MTD was defined as the highest dose at which no more than 1 of 6 subjects experienced a DLT during cycle 1 of the study drug. The MTD would have been exceeded if 2 or more subjects in a dose cohort of up to 6 subjects experienced a DLT. Subjects could continue treatment until disease progression, unacceptable toxicity, death, withdrawal of consent, or loss to follow-up.
# Before enrolment in the study, all patients received a detailed medical history and physical examination. Clinical laboratory evaluations included clinical chemistry, complete blood count, urinalysis, coagulation factors, and a lipid panel. Other safety assessments included vital signs, physical examination, electrocardiogram, and echocardiogram with multigated acquisition (ECHO/MUGA). Safety assessments were performed on days 1, 8, 15, and 21 of cycle 1, and on day 1 of cycles 2 to 6.
smiles,measurement,setting,value
"Nc1ncc(-c2cnn(C3CCNCC3)c2)cc1-c1nnc(CC2CC2)o1 [SLC-391, 3-(5-[cyclopropylmethyl]-1,3,4-oxadiazol-2-yl)-5-(1-[piperidin-4-yl]-1H-pyrazol-4-yl)-pyridin-2-amine]",TEAE: Oedema peripheral,Overall BID (N = 15),2 (13.3) n (%)
same,TEAE: Psychiatric disorders,Overall BID (N = 15),3 (20.0) n (%)
same,TEAE: Pyrexia,Overall BID (N = 15),2 (13.3) n (%)
same,TEAE: Renal and urinary disorders,Overall BID (N = 15),5 (33.3) n (%)
same,"TEAE: Respiratory, thoracic, and mediastinal disorders",Overall BID (N = 15),8 (53.3) n (%)
same,TEAE: Skin and subcutaneous tissue disorders,Overall BID (N = 15),3 (20.0) n (%)
same,TEAE: Urinary tract infection,Overall BID (N = 15),3 (20.0) n (%)
same,TEAE: Vascular disorders,Overall BID (N = 15),2 (13.3) n (%)
same,TEAE: Vomiting,Overall BID (N = 15),6 (40.0) n (%)
same,TEAE: Weight decreased,Overall BID (N = 15),2 (13.3) n (%)
same,Any treatment-emergent adverse event (TEAE),Overall QD (N = 20),19 (95.0) n (%)
same,TEAE: Abdominal distension,Overall QD (N = 20),3 (15.0) n (%)
same,TEAE: Abdominal pain,Overall QD (N = 20),5 (25.0) n (%)
same,TEAE: Back pain,Overall QD (N = 20),2 (10.0) n (%)
same,TEAE: Blood and lymphatic system disorders,Overall QD (N = 20),2 (10.0) n (%)
same,TEAE: Chills,Overall QD (N = 20),2 (10.0) n (%)
same,TEAE: Constipation,Overall QD (N = 20),7 (35.0) n (%)
same,TEAE: Cough,Overall QD (N = 20),4 (20.0) n (%)
same,TEAE: Decreased appetite,Overall QD (N = 20),7 (35.0) n (%)
same,TEAE: Diarrhoea,Overall QD (N = 20),11 (55.0) n (%)
same,TEAE: Dizziness,Overall QD (N = 20),4 (20.0) n (%)
same,TEAE: Dysgeusia,Overall QD (N = 20),2 (10.0) n (%)
same,TEAE: Dyspnoea,Overall QD (N = 20),7 (35.0) n (%)
same,TEAE: Fatigue,Overall QD (N = 20),12 (60.0) n (%)
same,TEAE: Gastrointestinal disorders,Overall QD (N = 20),17 (85.0) n (%)
same,TEAE: General disorders and administration site conditions,Overall QD (N = 20),15 (75.0) n (%)
same,TEAE: Haematuria,Overall QD (N = 20),1 (5.0) n (%)
same,TEAE: Headache,Overall QD (N = 20),2 (10.0) n (%)
same,TEAE: Infections and infestations,Overall QD (N = 20),4 (20.0) n (%)
same,TEAE: Investigations,Overall QD (N = 20),5 (25.0) n (%)
same,TEAE: Metabolism and nutrition disorders,Overall QD (N = 20),9 (45.0) n (%)
same,TEAE: Musculoskeletal and connective tissue disorders,Overall QD (N = 20),8 (40.0) n (%)
same,TEAE: Nausea,Overall QD (N = 20),13 (65.0) n (%)
same,TEAE: Nervous system disorders,Overall QD (N = 20),10 (50.0) n (%)
same,TEAE: Oedema peripheral,Overall QD (N = 20),2 (10.0) n (%)
same,TEAE: Psychiatric disorders,Overall QD (N = 20),2 (10.0) n (%)
same,TEAE: Pyrexia,Overall QD (N = 20),3 (15.0) n (%)
same,TEAE: Renal and urinary disorders,Overall QD (N = 20),1 (5.0) n (%)
same,"TEAE: Respiratory, thoracic, and mediastinal disorders",Overall QD (N = 20),11 (55.0) n (%)
same,TEAE: Skin and subcutaneous tissue disorders,Overall QD (N = 20),7 (35.0) n (%)
same,TEAE: Urinary tract infection,Overall QD (N = 20),1 (5.0) n (%)
same,TEAE: Vascular disorders,Overall QD (N = 20),3 (15.0) n (%)
same,TEAE: Vomiting,Overall QD (N = 20),11 (55.0) n (%)
same,TEAE: Weight decreased,Overall QD (N = 20),4 (20.0) n (%)
same,Any treatment-emergent adverse event (TEAE),Overall Study (N = 35),34 (97.1) n (%)
same,TEAE: Abdominal distension,Overall Study (N = 35),6 (17.1) n (%)
same,TEAE: Abdominal pain,Overall Study (N = 35),5 (14.3) n (%)
same,TEAE: Back pain,Overall Study (N = 35),4 (11.4) n (%)
same,TEAE: Blood and lymphatic system disorders,Overall Study (N = 35),4 (11.4) n (%)
same,TEAE: Chills,Overall Study (N = 35),6 (17.1) n (%)
same,TEAE: Constipation,Overall Study (N = 35),14 (40.0) n (%)
same,TEAE: Cough,Overall Study (N = 35),7 (20.0) n (%)
same,TEAE: Decreased appetite,Overall Study (N = 35),12 (34.3) n (%)
same,TEAE: Diarrhoea,Overall Study (N = 35),20 (57.1) n (%)
same,TEAE: Dizziness,Overall Study (N = 35),4 (11.4) n (%)
same,TEAE: Dysgeusia,Overall Study (N = 35),4 (11.4) n (%)
same,TEAE: Dyspnoea,Overall Study (N = 35),12 (34.3) n (%)
same,TEAE: Fatigue,Overall Study (N = 35),22 (62.9) n (%)
same,TEAE: Gastrointestinal disorders,Overall Study (N = 35),30 (85.7) n (%)
same,TEAE: General disorders and administration site conditions,Overall Study (N = 35),27 (77.1) n (%)
same,TEAE: Haematuria,Overall Study (N = 35),5 (14.3) n (%)
same,TEAE: Headache,Overall Study (N = 35),5 (14.3) n (%)
same,TEAE: Infections and infestations,Overall Study (N = 35),11 (31.4) n (%)
same,TEAE: Investigations,Overall Study (N = 35),8 (22.9) n (%)
same,TEAE: Metabolism and nutrition disorders,Overall Study (N = 35),14 (40.0) n (%)
